Experimental data: patent US20230348415A1, “BISPECIFIC ANTAGONISTS OF RETINOL-BINDING PROTEIN 4 THAT STABILIZE TRANSTHYRETIN TETRAMERS, THEIR PREPARATION, AND USE IN THE TREATMENT OF COMMON AGE-RELATED COMORBIDITIES” (The Trustees of Columbia University in the City of New York, priority 2020, published 2023)

Experiments:
[1] = target: RBP4-TTR interaction (Homo sapiens (Human), UniProt P02753); test: HTRF RBP4-TTR interaction assay; format: biochemical; conditions: 1 μM retinol; read-out: RBP4-TTR HTRF IC50
Method: HTRF Cryptate labeling kit from CisBio (Cisbio, cat #62EUSPEA, Bedfored, MA) was used to label TTR with Eu^3+ Cryptate. The assay was performed in a final assay volume of 16 μl in the buffer that contained 10 mM Tris-HCl pH 7.5, 1 mM DTT, 0.05% NP-40, 0.05% Prionex, 6% glycerol, and 400 mM KF. […] All of the reactions were performed under dim red light in the dark. The plates were read in the SpectraMax M5e Multimode Plate Reader (Molecular Devices, Sunnyvale, CA) after the overnight incubation at 4° C. […] The HTRF signal was expressed as the ratio of fluorescence intensity: Flu668/Flu620×10,000.

[2] = target: serum RBP4 (Mus musculus (Mouse), UniProt Q00724); test: Serum RBP4 after long-term oral dosing in Abca4−/− mice; format: in vivo; conditions: 25 mg/kg daily in chow
Method: FIG. 7. Effect of the long-term oral (±)-44 administration in Abca4^−/− mice on serum RBP4 levels. Serum RBP4 levels were measured in vehicle-treated Abca4^−/− mice (squares) and (±)-44-treated Abca4-mice (triangles) at the indicated time points. […] Error bars show S.D. Each data point on the graph represents a serum RBP4 concentration from an individual animal.
Blood samples were collected from a tail vein. Whole blood was drawn into a centrifuge tube and was allowed to clot at room temperature for 30 minutes followed by centrifugation at 2000 g for 15 minutes at […] to collect serum. Aliquots of plasma samples collected in the mouse pharmacokinetic study were analyzed for the RBP4 concentration using the RBP4 (mouse/rat) dual ELISA kit (AdipoGen, San Diego, CA) following the manufacturer's instructions. In adi-hRBP4 transgenic mouse experiments, blood samples were collected from a tail vein. Whole blood was drawn into a centrifuge tube and was allowed to clot at room temperature for 30 min followed by centrifugation at 2000 g for 15 min at +4° C. to collect serum. Mouse serum RBP4 (produced predominantly in the liver) was measured using the RBP4 (mouse/rat) dual ELISA kit (AdipoGen, San Diego, CA; catalog number AG-45A-0012YTP-KI01)
(±)-44 was formulated into a Picolab 5053 chow to ensure a daily dosing of 25 mg/kg of (±)-44. […]

[3] = Metabolic stability and clearance in rat liver microsomes; format: in vitro ADME; conditions: 30 minute incubation
Method: The results of metabolic stability determinations for novel compounds and testosterone (positive control) were conducted in the presence of human, rat, mouse, and monkey liver microsomes. Values shown are percent of parent remaining after a 30 minute incubation. All measurements were done in duplicate. Assay results for testosterone were within an acceptable range.
Mixed-gender human liver microsomes (Lot #1710084), male Sprague-Dawley rat liver microsomes (Lot #1610290), male CD-1 mouse liver microsomes (Lot #1710069), and male Cynomolgous liver microsomes (Lot #1510193) were purchased from XenoTech. The reaction mixture, minus NADPH, was prepared as described below. The test article was added into the reaction mixture at a final concentration of 1 μM. The control compound, testosterone, was run simultaneously with the test article in a separate reaction. An aliquot of the reaction mixture (without cofactor) was equilibrated in a shaking water bath at 37° C. for 3 minutes. The reaction was initiated by the addition of cofactor, and the mixture was incubated in a shaking water bath at 37° C. Aliquots (100 μL) were withdrawn at 0, 10, 20, 30, and 60. […] Half-lives were calculated using GraphPad software, fitting to a single-phase exponential decay equation.

Cc1cc(C(=O)O)nc(N2CCC(COc3ccccc3C(F)(F)F)C2)n1 (racemic) [Compound (±)-44, (±)-6-Methyl-2-(3-((2-(trifluoromethyl)phenoxy)methyl)pyrrolidin-1-yl)pyrimidine-4-carboxylic Acid]
IC50 [1]: 250 nM
serum RBP4 reduction compared to untreated Abca4−/− mice ([2]; week 12): 82%
serum RBP4 reduction compared with baseline ([2]; week 12, Abca4−/− mice): 79%
Liver Microsomal Stability (% remaining at 30 min), RLM [3]: 93%
